Experimental findings from patent US20260294890A1, “LONG-TERM PREVENTION AND/OR TREATMENT OF A DISEASE BY SLO-1 INHIBITORS” (Elanco Animal Health GmbH, priority 2023, published 2026) are described below.

Data set [1] can be described thus: Assay 1: half-life and plasma clearance upon intravenous administration to beagle dogs. It is filed as in vivo. The settings on record: dog, iv dose up to 0.3 mg/kg, plasma, geometric mean, Phoenix PK/PD (Example 1: internal tool); for half-life: read-out: Half-life (h/Form) iv, geometric mean (converted). The procedure: Assay 1: Determination of Half-Life and Plasma Clearance of Compounds of the Invention Upon Administration to Beagle Dogs
Compounds according to the invention were administered as an intravenous (iv) dose (up to 0.3 mg/kg) to beagle dogs (minimum n=3). Blood samples were collected from these beagle dogs up to 168 h after intravenous administration and up to 3024 h after subcutaneous administration. A portion of each whole blood sample was processed to plasma. Compound concentrations were determined in plasma using LCMS/MS. Phoenix™ Pharmacokinetic and Pharmacodynamic (PK/PD) was used to determine half-life and plasma clearance values. Only for Example 1, an internal tool available to the inventors was used to determine the half-life and plasma clearance values.

A short description of data set [2]: log P by HPLC on reversed phase columns (LC-MS Method 0). The settings on record: 0.1% formic acid/acetonitrile; Method 0, acidic range, 0.1% formic acid in water and acetonitrile; read-out: log P (HCOOH). It is filed as physicochemical. The procedure:
Measurement of log P values was performed according to EEC directive 79/831 Annex V.A8 by HPLC (High Performance Liquid Chromatography) on reversed phase columns with the following methods, instrument(s): Agilent 1100 LC system, Agilent MSD system, HTS PAL; Waters IClass Acquity UPLC, SQD2 (MS), PDA (UV). • ^[a]log P value is determined by measurement of LC-UV, in an acidic range, with 0.1% formic acid in water and acetonitrile as eluent (linear gradient from 10% acetonitrile to 95% acetonitrile). • ^[b]log P value is determined by measurement of LC-UV, in a neutral range, with 0.001 molar ammonium acetate solution in water and acetonitrile as eluent (linear gradient from 10% acetonitrile to 95% acetonitrile).
Calibration was done with straight-chain alkan-2-ones (with 3 to 16 carbon atoms) with known log P values (measurement of log P values using retention times with linear interpolation between successive alkanones). Lambda-max-values were determined using UV-spectra from 200 nm to 400 nm and the peak values of the chromatographic signals.

The test system of data set [3] is Ancylostoma caninum. Briefly: Assay 3: treatment of an existing hookworm infection in dogs (cohort A). The following applies: 30 mg/kg subcutaneous 15 days after infection. It is filed as in vivo. The procedure:
(§1) 12 dogs were allocated to one of six groups in three cohorts. Each cohort comprised a negative control group (n=2) (‘Control group’) and a group (n=2) treated with the compound of Example 9 (‘Treatment group’).
(§2) Dogs in negative control groups were administered an equivalent volume of vehicle solution.
(§3) All dogs were infected with 100-300 hookworm (Ancylostoma caninum) 3rd-stage larvae (L3s) via oral gavage (W.A.A.V.P. Guidelines, First edition; Jacobs, D. E., A. Arakawa, C. H. Courtney, et al., 1994. Vet. Parasitol. 52: 179-202). The cohorts were treated as follows: • Cohort A: The compound of Example 9 or the vehicle solution was administered 15 days after infection with Ancylostoma caninum • Cohort B: The compound of Example 9 or the vehicle solution was administered 30 days prior to infection with Ancylostoma caninum • Cohort C: The compound of Example 9 or the vehicle solution was administered 60 days prior to infection with Ancylostoma caninum
(§4) Fecal egg counts (FECs, eggs per gram of feces) were obtained from each dog 15, 20, 25 and 30 days after hookworm infection.
(§5) Following the final FEC, dogs were dewormed with a commercial anthelmintic and feces were collected for 48 hours. Fecal output from each dog was soaked in water for a minimum of 30 minutes and processing through 250 μm, 150 μm and 38 μm sieves to recover expelled adult and immature hookworms. Expelled hookworms were preserved in fixative (5% formalin) and counted.
Cohort A was designed to evaluate effectiveness against patent adult hookworm infections present at the time of treatment with the compound of Example 9.

Data set [4] concerns Ancylostoma caninum. Nature of the data set: Assay 3: residual efficacy against hookworm infection in dogs (cohorts B and C). It is filed as in vivo. The following applies: for % Reduction of Mean Fecal Egg Count / % Reduction of Mean Number of Recovered Hookworms: vs control; for Mean Number of Recovered Hookworms: after final FEC. As for the experimental part:
as §1, §2, §3, §4, §5

Data set [5] has as its system Dirofilaria immitis. Nature of the data set: Assay 2: residual protection test, second Dirofilaria immitis infection of dogs 90 days after treatment.
Data set [6] deals with Dirofilaria immitis. Nature of the data set: Assay 2: prevention test, Dirofilaria immitis heartworm infection in dogs (modified Knott and heartworm antigen tests).
The mark [7] stands for this setting: cohort B, 30 mg/kg subcutaneous 30 days prior to infection, 15 days after infection.
[8] abbreviates: cohort B, 30 mg/kg subcutaneous 30 days prior to infection, 20 days after infection.
The mark [9] stands for this setting: cohort B, 30 mg/kg subcutaneous 30 days prior to infection, 25 days after infection.
Setting [10] is: cohort B, 30 mg/kg subcutaneous 30 days prior to infection, 30 days after infection.
Setting [11] is: cohort B, 30 mg/kg subcutaneous 30 days prior to infection.
Setting [12] is: cohort C, 30 mg/kg subcutaneous 60 days prior to infection, 15 days after infection.
[13] abbreviates: cohort C, 30 mg/kg subcutaneous 60 days prior to infection, 20 days after infection.
Setting [14] is: cohort C, 30 mg/kg subcutaneous 60 days prior to infection, 25 days after infection.
The mark [15] stands for this setting: cohort C, 30 mg/kg subcutaneous 60 days prior to infection, 30 days after infection.
Setting [16] is: cohort C, 30 mg/kg subcutaneous 60 days prior to infection.

`O=C(N[C@H]1CCOc2ccccc21)c1cnc2c(-c3cc(F)cc(F)c3F)c(F)ccc2c1N1CC(F)C1` [Example 7, N-[(4S)-3,4-Dihydro-2H-chromen-4-yl]-7-fluoro-4-(3-fluoroazetidin-1-yl)-8-(2,3,5-trifluorophenyl)quinoline-3-carboxamide]: in data set [1], the clearance was 0.833 mL/min/kg and the half-life is 124 h. Besides, the chromatographic logP in data set [2] turned out to be 1.93.
In data set [1], `O=C(N[C@H]1CCOc2ccccc21)c1cnc2c(-c3cc(F)cc(F)c3F)c(F)ccc2c1[C@H]1C[C@H](F)C1` [Example 9, N—((S)-chroman-4-yl)-7-fluoro-4-((1R,3S)-3-fluorocyclobutyl)-8-(2,3,5-trifluorophenyl)quinoline-3-carboxamide] had a clearance of 1.17 mL/min/kg. In data set [1], the half-life is 190 h. The “Fecal egg count reduction upon treatment” value in the data set with Ancylostoma caninum [3] is listed as more than 90%. In addition, the “Mean Fecal Egg Count” value came to 0 EPG in the data set on Ancylostoma caninum [3] (15 days after infection); 0 EPG in the data set on Ancylostoma caninum [3] (20 days after infection); 25 EPG with Ancylostoma caninum [3] (25 days after infection); 0 EPG with Ancylostoma caninum [3] (30 days after infection); 0 EPG with Ancylostoma caninum [4] (setting [7]); 0 EPG in the data set with Ancylostoma caninum [4] (setting [8]). The “Mean Fecal Egg Count” value in the data set with Ancylostoma caninum [4] (setting [9]), with Ancylostoma caninum [4] (setting [10]), in the data set on Ancylostoma caninum [4] (setting [12]), in the data set on Ancylostoma caninum [4] (setting [13]), in the data set with Ancylostoma caninum [4] (setting [14]) and in the data set on Ancylostoma caninum [4] (setting [15]) was 0 EPG each time. For the same compound, the “% Reduction of Mean Fecal Egg Count” value came to 100% with Ancylostoma caninum [3] (15 days after infection, vs control); 100% in the data set with Ancylostoma caninum [3] (20 days after infection, vs control); 93.75% in the data set on Ancylostoma caninum [3] (25 days after infection, vs control); 100% in the data set on Ancylostoma caninum [3] (30 days after infection, vs control); 100% in the data set with Ancylostoma caninum [4] (setting [7]); 100% in the data set with Ancylostoma caninum [4] (setting [8]). For the same compound, the “% Reduction of Mean Fecal Egg Count” value in the data set on Ancylostoma caninum [4] (setting [9]), with Ancylostoma caninum [4] (setting [10]), in the data set with Ancylostoma caninum [4] (setting [12]), in the data set with Ancylostoma caninum [4] (setting [13]), in the data set on Ancylostoma caninum [4] (setting [14]) and in the data set with Ancylostoma caninum [4] (setting [15]) was 100% in each case. In addition, the “Mean Number of Recovered Hookworms” value in the data set with Ancylostoma caninum [3] (after final FEC) is 0.0; in the data set with Ancylostoma caninum [4] (setting [11]) it was 0; in the data set on Ancylostoma caninum [4] (setting [16]), 0. For the same compound, the “% Reduction of Mean Number of Recovered Hookworms” value in the data set with Ancylostoma caninum [3] (vs control), in the data set with Ancylostoma caninum [4] (setting [11]) and in the data set with Ancylostoma caninum [4] (setting [16]) was 100% throughout. The “duration of 100% protection from infections with hookworm larvae” value with Ancylostoma caninum [4] (cohorts B and C, 30 mg/kg subcutaneous) is listed as “at least 60 days”. In the data set on Ancylostoma caninum [4] (cohorts B and C, 30 mg/kg subcutaneous, FECs and expelled worm counts, for at least 60 days), the “protection from infections with hookworm larvae” value amounted to 100%. Further, the “dogs with a positive heartworm antigen test result” value in the data set with Dirofilaria immitis [5] (30 mg/kg subcutaneous 90 days before second infection, 149 days after second infection) is reported as 50%. Besides, the “residual protection from infection with Dirofilaria immitis” value in the data set on Dirofilaria immitis [5] (dogs, 30 mg/kg subcutaneous prior to second infection) is given as “significant residual protection”. For the same compound, the “reduction in worm burden in the heart and lungs relative to the negative control group” value with Dirofilaria immitis [5] (dogs, 30 mg/kg subcutaneous prior to second infection, necropsy approx. 5 months after infection, all dogs) is more than 80%. Also, the “dogs with positive test results in the modified Knott and heartworm antigen tests” value in the data set with Dirofilaria immitis [6] (30 mg/kg subcutaneous 90 days after infection, 150, 180 and 210 days after infection) is “None of the dogs”. Moreover, the “effectiveness at preventing the development of patent adult heartworm” value in the data set with Dirofilaria immitis [6] (dogs, 30 mg/kg subcutaneous, administered 90 days after experimental infection) was determined as 100%.
